Assay results from patent publication US9738660B2, “Selective inhibitors for protein kinases and pharmaceutical composition and use thereof” (National Chiao Tung University, priority 2014, dated 2017).
Where two headings read alike, the source gives them in different places.

Key:
EGFR = target: T1, EGFR (Homo sapiens, UniProt P00533); assay: Kinase Profiler, residual kinase activity; format: biochemical; conditions: read-out: percentage of the remaining kinase activity
T1 construct: purchased Research Biology Corp. (http://www.reactionbiology.com)
T1 sequence (P00533 25-1210): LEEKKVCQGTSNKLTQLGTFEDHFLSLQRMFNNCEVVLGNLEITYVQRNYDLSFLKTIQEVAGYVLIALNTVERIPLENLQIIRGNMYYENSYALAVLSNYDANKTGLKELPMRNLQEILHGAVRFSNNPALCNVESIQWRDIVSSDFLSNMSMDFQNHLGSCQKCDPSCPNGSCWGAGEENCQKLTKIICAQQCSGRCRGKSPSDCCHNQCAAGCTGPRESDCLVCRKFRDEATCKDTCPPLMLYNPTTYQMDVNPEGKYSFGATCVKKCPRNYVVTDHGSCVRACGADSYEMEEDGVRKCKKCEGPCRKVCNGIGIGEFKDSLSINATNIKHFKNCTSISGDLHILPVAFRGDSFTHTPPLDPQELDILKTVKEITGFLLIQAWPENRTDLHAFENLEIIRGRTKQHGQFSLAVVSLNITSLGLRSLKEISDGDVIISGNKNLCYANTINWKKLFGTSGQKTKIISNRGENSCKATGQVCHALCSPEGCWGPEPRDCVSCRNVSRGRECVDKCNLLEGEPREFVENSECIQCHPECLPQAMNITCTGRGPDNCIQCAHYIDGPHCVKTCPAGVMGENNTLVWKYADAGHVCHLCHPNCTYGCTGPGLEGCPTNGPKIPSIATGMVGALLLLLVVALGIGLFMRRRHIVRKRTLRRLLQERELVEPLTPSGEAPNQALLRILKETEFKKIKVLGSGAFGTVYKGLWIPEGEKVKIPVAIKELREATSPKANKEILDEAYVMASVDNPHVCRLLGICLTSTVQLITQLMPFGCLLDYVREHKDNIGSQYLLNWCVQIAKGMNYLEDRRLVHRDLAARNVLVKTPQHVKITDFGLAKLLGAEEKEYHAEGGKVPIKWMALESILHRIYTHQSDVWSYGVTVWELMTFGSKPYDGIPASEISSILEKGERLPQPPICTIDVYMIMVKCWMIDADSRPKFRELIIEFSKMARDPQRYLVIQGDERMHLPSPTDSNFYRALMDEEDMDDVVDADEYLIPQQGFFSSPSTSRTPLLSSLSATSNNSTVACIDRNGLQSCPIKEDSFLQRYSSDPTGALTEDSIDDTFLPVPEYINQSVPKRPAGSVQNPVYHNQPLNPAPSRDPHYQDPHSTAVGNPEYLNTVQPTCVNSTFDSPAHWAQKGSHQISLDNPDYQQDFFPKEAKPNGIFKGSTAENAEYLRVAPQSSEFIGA
In short: (§1)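 Screening against 40 kinases, done externally.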

DAPK1 = DAPK1 (Homo sapiens, UniProt P53355); assay: Kinase Profiler, residual kinase activity; format: biochemical; conditions: read-out: percentage of the remaining kinase activity
Sequence of DAPK1 (P53355 whole entry): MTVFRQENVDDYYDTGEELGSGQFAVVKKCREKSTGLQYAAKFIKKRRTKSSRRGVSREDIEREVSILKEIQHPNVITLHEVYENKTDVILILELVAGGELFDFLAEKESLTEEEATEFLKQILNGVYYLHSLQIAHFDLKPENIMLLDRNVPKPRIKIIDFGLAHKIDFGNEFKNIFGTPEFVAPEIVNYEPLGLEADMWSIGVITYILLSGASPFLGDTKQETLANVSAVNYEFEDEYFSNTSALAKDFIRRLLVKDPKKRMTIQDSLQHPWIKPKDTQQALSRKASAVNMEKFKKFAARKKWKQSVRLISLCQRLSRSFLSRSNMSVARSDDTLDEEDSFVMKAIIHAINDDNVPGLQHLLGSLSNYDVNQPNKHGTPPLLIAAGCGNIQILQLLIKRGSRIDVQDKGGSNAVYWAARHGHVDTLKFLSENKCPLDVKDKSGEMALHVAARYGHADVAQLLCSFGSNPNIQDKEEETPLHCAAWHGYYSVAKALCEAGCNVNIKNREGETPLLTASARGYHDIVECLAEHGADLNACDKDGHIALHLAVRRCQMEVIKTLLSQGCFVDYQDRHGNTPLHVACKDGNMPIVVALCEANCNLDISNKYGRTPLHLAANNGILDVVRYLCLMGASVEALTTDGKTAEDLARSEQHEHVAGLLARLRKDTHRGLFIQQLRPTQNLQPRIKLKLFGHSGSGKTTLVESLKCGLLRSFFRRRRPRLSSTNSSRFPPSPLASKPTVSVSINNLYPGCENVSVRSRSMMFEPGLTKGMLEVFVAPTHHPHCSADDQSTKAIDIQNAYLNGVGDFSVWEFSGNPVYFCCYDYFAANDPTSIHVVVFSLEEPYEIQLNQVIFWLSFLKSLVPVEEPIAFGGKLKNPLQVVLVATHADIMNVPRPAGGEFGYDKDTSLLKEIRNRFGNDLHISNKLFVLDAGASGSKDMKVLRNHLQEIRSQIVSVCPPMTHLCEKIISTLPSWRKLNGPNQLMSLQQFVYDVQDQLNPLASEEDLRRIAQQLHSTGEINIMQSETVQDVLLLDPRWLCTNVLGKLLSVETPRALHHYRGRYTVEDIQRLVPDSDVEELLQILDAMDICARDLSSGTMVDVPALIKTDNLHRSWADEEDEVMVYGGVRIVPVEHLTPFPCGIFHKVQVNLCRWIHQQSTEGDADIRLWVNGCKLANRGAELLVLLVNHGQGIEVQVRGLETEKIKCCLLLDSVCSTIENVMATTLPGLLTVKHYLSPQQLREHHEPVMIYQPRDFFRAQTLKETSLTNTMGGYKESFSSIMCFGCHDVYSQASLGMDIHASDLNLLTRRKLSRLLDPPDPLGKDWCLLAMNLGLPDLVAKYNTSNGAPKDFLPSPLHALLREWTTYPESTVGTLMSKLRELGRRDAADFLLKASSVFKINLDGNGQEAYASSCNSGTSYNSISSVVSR
In short: as §1

RPS6KA5 = target: T2, RPS6KA5 (Homo sapiens, UniProt O75582); assay: Kinase Profiler, residual kinase activity; format: biochemical; conditions: read-out: percentage of the remaining kinase activity
T2 construct: purchased Research Biology Corp. (http://www.reactionbiology.com)
T2 sequence (O75582 whole entry): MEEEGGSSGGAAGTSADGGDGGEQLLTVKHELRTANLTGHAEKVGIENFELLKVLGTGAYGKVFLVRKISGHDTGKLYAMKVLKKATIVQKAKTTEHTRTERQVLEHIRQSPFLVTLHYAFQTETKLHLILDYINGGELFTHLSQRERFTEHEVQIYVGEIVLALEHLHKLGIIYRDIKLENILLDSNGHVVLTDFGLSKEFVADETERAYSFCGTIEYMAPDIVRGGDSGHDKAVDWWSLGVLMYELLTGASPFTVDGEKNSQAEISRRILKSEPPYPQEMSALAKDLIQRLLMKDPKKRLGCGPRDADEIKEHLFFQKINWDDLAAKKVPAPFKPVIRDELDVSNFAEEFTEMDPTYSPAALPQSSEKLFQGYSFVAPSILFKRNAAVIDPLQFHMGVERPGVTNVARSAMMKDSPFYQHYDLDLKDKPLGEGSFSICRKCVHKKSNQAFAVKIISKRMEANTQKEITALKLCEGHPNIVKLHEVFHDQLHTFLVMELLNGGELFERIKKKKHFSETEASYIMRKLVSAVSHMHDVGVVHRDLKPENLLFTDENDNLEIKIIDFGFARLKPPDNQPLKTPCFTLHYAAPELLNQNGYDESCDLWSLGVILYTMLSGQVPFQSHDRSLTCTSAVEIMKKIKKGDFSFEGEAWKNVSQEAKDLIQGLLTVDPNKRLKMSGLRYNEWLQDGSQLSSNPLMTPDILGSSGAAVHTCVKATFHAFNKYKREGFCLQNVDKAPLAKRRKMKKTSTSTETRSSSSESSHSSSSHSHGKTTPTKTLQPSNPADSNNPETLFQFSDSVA
In short: as §1

INSR = target: T3, INSR (Homo sapiens, UniProt P06213); assay: Kinase Profiler, residual kinase activity; format: biochemical; conditions: read-out: percentage of the remaining kinase activity
T3 construct: purchased Research Biology Corp. (http://www.reactionbiology.com)
In short: as §1

RET = RET (Homo sapiens, UniProt P07949); assay: Kinase Profiler, residual kinase activity; format: biochemical; conditions: read-out: percentage of the remaining kinase activity
Sequence of RET (P07949 29-1114): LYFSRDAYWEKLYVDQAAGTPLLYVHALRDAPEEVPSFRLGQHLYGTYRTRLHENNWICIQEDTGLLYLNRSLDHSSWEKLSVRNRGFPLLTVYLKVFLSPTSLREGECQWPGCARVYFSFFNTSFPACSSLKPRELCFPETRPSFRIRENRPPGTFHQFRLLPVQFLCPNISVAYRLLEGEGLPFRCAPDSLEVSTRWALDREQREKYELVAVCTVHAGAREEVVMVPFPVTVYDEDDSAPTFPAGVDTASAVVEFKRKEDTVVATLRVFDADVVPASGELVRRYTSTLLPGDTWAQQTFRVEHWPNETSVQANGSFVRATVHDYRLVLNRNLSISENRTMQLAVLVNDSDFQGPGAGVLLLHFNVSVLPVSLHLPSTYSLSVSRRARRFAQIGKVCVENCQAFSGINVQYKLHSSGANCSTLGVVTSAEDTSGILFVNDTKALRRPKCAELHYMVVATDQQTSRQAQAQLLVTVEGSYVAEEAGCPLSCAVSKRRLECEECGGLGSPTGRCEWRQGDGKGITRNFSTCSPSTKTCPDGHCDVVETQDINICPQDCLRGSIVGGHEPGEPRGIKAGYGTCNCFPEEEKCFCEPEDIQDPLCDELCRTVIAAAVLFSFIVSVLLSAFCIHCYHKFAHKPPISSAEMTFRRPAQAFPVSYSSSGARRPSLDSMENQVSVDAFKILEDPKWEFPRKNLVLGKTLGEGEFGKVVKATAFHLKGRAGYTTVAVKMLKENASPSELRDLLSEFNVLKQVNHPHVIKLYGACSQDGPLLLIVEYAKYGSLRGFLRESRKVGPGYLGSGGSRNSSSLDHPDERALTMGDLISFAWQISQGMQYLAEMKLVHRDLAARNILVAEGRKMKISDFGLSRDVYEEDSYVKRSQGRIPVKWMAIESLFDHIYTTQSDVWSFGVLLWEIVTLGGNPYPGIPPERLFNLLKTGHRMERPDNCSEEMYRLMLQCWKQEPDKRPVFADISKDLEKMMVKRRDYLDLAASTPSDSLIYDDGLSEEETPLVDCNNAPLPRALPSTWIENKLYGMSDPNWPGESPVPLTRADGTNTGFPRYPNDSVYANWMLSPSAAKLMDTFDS
In short: as §1

AURKA = target: T4, AURKA (Homo sapiens, UniProt O14965); assay: Kinase Profiler, residual kinase activity; format: biochemical; conditions: read-out: percentage of the remaining kinase activity
T4 sequence (O14965 1-403): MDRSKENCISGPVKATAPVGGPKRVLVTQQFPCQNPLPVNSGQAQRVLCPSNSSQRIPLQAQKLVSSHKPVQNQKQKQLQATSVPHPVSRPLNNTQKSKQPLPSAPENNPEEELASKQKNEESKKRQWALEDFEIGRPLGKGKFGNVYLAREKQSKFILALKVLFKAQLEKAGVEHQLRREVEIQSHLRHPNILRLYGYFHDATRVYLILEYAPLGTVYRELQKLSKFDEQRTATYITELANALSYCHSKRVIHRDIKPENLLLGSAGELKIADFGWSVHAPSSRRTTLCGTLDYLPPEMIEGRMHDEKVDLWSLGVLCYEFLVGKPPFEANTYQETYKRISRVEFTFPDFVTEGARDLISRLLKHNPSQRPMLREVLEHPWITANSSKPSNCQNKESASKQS
In short: as §1

ALK = ALK (Homo sapiens, UniProt Q9UM73); assay: Kinase Profiler, residual kinase activity; format: biochemical; conditions: read-out: percentage of the remaining kinase activity
In short: as §1

MAP3K7 = target: T5, MAP3K7 (Homo sapiens, UniProt O43318); assay: Kinase Profiler, residual kinase activity; format: biochemical; conditions: read-out: percentage of the remaining kinase activity
T5 construct: purchased Research Biology Corp. (http://www.reactionbiology.com)
T5 sequence (O43318 1-303 limits assumed): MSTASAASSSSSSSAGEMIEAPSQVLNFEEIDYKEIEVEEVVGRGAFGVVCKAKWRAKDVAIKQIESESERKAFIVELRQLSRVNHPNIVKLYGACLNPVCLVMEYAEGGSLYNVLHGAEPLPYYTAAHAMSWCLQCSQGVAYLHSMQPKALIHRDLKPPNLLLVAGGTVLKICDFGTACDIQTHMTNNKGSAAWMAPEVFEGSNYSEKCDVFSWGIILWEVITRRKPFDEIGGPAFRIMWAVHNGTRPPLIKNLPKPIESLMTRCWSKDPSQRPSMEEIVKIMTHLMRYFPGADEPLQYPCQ
In short: as §1

ABL1 = ABL1 (Homo sapiens, UniProt P00519); assay: Kinase Profiler, residual kinase activity; format: biochemical; conditions: read-out: percentage of the remaining kinase activity
PLK1 = target: T6, PLK1 (Homo sapiens, UniProt P53350); assay: Kinase Profiler, residual kinase activity; format: biochemical; conditions: read-out: percentage of the remaining kinase activity
T6 construct: purchased Research Biology Corp. (http://www.reactionbiology.com)
T6 sequence (P53350 whole entry): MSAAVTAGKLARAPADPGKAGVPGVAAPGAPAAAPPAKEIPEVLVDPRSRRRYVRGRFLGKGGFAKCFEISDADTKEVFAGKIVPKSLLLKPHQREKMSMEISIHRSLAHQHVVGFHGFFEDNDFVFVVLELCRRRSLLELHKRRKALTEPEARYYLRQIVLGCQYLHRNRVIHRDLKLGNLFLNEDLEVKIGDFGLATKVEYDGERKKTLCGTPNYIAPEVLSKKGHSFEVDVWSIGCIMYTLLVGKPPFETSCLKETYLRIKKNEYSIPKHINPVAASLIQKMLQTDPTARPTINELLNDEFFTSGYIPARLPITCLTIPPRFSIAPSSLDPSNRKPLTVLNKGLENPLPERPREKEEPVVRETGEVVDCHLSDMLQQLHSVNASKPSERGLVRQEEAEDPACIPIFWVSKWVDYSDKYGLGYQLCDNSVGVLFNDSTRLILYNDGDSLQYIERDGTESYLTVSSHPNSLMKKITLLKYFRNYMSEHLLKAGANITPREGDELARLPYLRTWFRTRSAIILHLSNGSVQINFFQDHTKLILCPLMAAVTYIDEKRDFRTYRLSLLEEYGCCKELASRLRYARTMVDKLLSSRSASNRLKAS

CDK2 = CDK2 (Homo sapiens, UniProt P24941); assay: Kinase Profiler, residual kinase activity; format: biochemical; conditions: read-out: percentage of the remaining kinase activity
[1] = test system: 40 types of protein kinases; assay: Selectivity over the panel of 40 protein kinases; format: biochemical; conditions: 500 nM; inhibited = residual kinase activity less than or equal to 50%
Excerpt: Kinase Profiler services provided by […]. (http://www.reactionbiology.com) were used to analyze the data of the 9 type-S protein kinase inhibitors against the 40 types of protein kinases.

[2] = test system: gastric cancer cell line MKN-45; assay: MTT cell survival test on gastric cancer cells; format: cell-based; conditions: Homo sapiens; MKN-45, MTT, 24 hours, serum-free media; read-out: IC50 value for inhibiting gastric cancer cell line MKN-45
Experimental: Gastric cancer cell line MKN-45 was incubated on a 96-well plate (about 1×10^4 cells/well). After the cells adhered, the 96-well plate was replaced with serum-free culture media, and different concentrations (from 40 to 0.039 μM) of drugs were added. After incubating at 37° C. for 24 hours, PBS was used for washing three times, and MTT culture media was added to react with cells. Violet crystals appeared after two hours. Then, DMSO (50 μl) was added to terminate the reaction. A light-absorbing micro-volume spectrophotometer (ELISA reader) was used, and an absorption value of 570 nm was obtained. A blank value was deducted from each of the obtained absorbance values, and then the difference was divided by the value of the control group to calculate a percentage, i.e., a cell survival rate. The experiment was repeated three times to obtain an average value and a standard deviation.

Row | Compound | remaining activity at 0.5 µM (EGFR; EGFR, inhibitor at 500 nM) [%] | remaining activity at 0.5 µM (DAPK1; DAPK1, inhibitor at 500 nM) [%] | remaining activity at 0.5 µM (RPS6KA5; RPS6KA5, inhibitor at 500 nM) [%] | remaining activity at 0.5 µM (INSR; INSR, inhibitor at 500 nM) [%] | remaining activity at 0.5 µM (RET; RET, inhibitor at 500 nM) [%] | remaining activity at 0.5 µM (AURKA; AURKA, inhibitor at 500 nM) [%] | remaining activity at 0.5 µM (ALK; ALK, inhibitor at 500 nM) [%] | remaining activity at 0.5 µM (MAP3K7; MAP3K7, inhibitor at 500 nM) [%] | remaining activity at 0.5 µM (ABL1; ABL1, inhibitor at 500 nM) [%] | remaining activity at 0.5 µM (PLK1; PLK1, inhibitor at 500 nM) [%] | remaining activity at 0.5 µM (CDK2; CDK2, inhibitor at 500 nM) [%] | other results
1 | COC1C(N(C)C(=O)C(N)Cc2c[nH]cn2)CC2OC1(C)n1c3ccccc3c3c4c(c5c6ccccc6n2c5c31)C(=O)NC4 (stereo not shown) [Compound 1] | 30.5 | 26 | 1.7 | 23.1 | 6 | 2.1 | 3.3 | 37.5 | 77.6 | 93.8 | 16.5 | 
2 | COC1C(N(C)C(=O)C(N)Cc2cn(C(=O)OC(C)(C)C)c3ccccc23)CC2OC1(C)n1c3ccccc3c3c4c(c5c6ccccc6n2c5c31)C(=O)NC4 (stereo not shown) [Compound 2] | 110 | 107 | 61.4 | 97.9 | 101 | 86.2 | 85.4 | 103 | 109 | 97.9 | 76.6 | percentage of the 40 types of protein kinases inhibited [1]: 2.5%
3 | COC1C(N(C)C(=O)C(N)Cc2ccc(OC(C)(C)C)cc2)CC2OC1(C)n1c3ccccc3c3c4c(c5c6ccccc6n2c5c31)C(=O)NC4 (stereo not shown) [Compound 4] | 108 | 96.4 | 1.6 | 84.8 | 63 | 19.7 | 56.7 | 98.6 | 107 | 104 | 57.5 | IC50 [2]: 1600 nM; number of types of protein kinases inhibited out of 40 tested [1]: 11; percentage of the 40 types of protein kinases inhibited [1]: 27.5%
4 | COC1C(N(C)C(=O)C(N)Cc2ccc(O)cc2)CC2OC1(C)n1c3ccccc3c3c4c(c5c6ccccc6n2c5c31)C(=O)NC4 (stereo not shown) [Compound 5] | 93.1 | 105 | 2.4 | 69.1 | 21.3 | 4.9 | 29.1 | 70.7 | 104 | 99.2 | 56.9 | 
5 | COC1C(N(C)C(=O)C(N)CCC(=O)OC(C)(C)C)CC2OC1(C)n1c3ccccc3c3c4c(c5c6ccccc6n2c5c31)C(=O)NC4 (stereo not shown) [Compound 6] | 108 | 101 | 3.3 | 72.3 | 34.2 | 5.3 | 44.7 | 84.2 | 97.6 | 104 | 55 | 
6 | COC1C(N(C)C(=O)C(N)CCC(=O)O)CC2OC1(C)n1c3ccccc3c3c4c(c5c6ccccc6n2c5c31)C(=O)NC4 (stereo not shown) [Compound 7] | 82.2 | 26.2 | 1.8 | 32.8 | 1.6 | 0.9 | 4.7 | 27.8 | 68 | 80.9 | 19.3 | 
7 | COC1C(N(C)CCOc2cccc([N+](=O)[O-])c2)CC2OC1(C)n1c3ccccc3c3c4c(c5c6ccccc6n2c5c31)C(=O)NC4 (stereo not shown) [Compound 8] |  |  |  |  |  |  |  |  |  |  |  | remaining activity at 0.5 µM (EGFR): 102%; remaining activity at 0.5 µM (DAPK1): 89.8%; remaining activity at 0.5 µM (RPS6KA5): 7.4%; remaining activity at 0.5 µM (INSR): 83.1%; remaining activity at 0.5 µM (RET): 16.2%; remaining activity at 0.5 µM (AURKA): 12.1%; remaining activity at 0.5 µM (ALK): 19.5%; remaining activity at 0.5 µM (MAP3K7): 63.5%; remaining activity at 0.5 µM (ABL1): 92.5%; remaining activity at 0.5 µM (PLK1): 97.7%; remaining activity at 0.5 µM (CDK2): 12.3%
8 | COC1C(N(C)Cc2ccc(-c3ccccc3)cc2)CC2OC1(C)n1c3ccccc3c3c4c(c5c6ccccc6n2c5c31)C(=O)NC4 (stereo not shown) [Compound 9] | 96.2 | 116 | 5.2 | 79.1 | 14.8 | 11.2 | 17.6 | 69.4 | 84.9 | 95.9 | 8.2 | 
9 | CN[C@@H]1C[C@H]2O[C@@](C)([C@@H]1OC)n1c3ccccc3c3c4c(c5c6ccccc6n2c5c31)C(=O)NC4 [STU, staurosporine, reference compound] |  |  |  |  |  |  |  |  |  |  |  | remaining activity at 0.5 µM (DAPK1): 1.9%; remaining activity at 0.5 µM (RPS6KA5): 1.1%; remaining activity at 0.5 µM (INSR): 16.2%; remaining activity at 0.5 µM (AURKA): 0.2%; remaining activity at 0.5 µM (ALK): -0.3%
